Measured values as given in BindingDB's records for doi:10.1021/cc9000357 (University of Alabama At Birmingham, 2009).

biological target: T1, NH(3)-dependent NAD(+) synthetase (Bacillus anthracis, UniProt Q81RP3); assay: NADs HPLC Enzyme Assay; details: pH 8.5; 4 °C
T1 sequence (Q81RP3 whole entry): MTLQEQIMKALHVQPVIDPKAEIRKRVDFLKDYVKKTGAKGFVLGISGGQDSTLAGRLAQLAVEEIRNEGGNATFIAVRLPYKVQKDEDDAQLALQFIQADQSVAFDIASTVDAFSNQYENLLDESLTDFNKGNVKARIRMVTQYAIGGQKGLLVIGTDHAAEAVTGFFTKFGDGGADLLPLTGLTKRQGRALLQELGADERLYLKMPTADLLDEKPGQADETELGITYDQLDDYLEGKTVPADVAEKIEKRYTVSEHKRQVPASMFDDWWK
Description: Inhibitory concentration of the compound measured against B. anthracis Nicotinamide adenine dinucleotide synthetase (NADs) using HPLC Enzyme Assay

Compound	IC50
O=C(Nc1ccc([N+](=O)[O-])cc1)Nc1ccc(S(=O)(=O)Nc2ccc(Cl)c(Cl)c2)cc1	6.4 µM
O=C(Nc1ccc(NS(=O)(=O)c2ccc(Cl)c(Cl)c2)cc1)Nc1ccccc1[N+](=O)[O-] [1-[4-[(3,4-dichlorophenyl)sulfonylamino]phenyl]-3-(2-nitrophenyl)urea]	443 µM
O=C(Nc1ccc(NS(=O)(=O)c2ccc(Cl)c(Cl)c2)cc1)Nc1cccc([N+](=O)[O-])c1 [1-[4-[(3,4-dichlorophenyl)sulfonylamino]phenyl]-3-(3-nitrophenyl)urea]	95.5 µM
Nc1ccc(S(=O)(=O)Nc2ccc(NC(=O)Nc3ccccc3[N+](=O)[O-])cc2)cc1 [1-[4-[(4-aminophenyl)sulfonylamino]phenyl]-3-(2-nitrophenyl)urea]	17.1 µM
O=C(Nc1ccc(NS(=O)(=O)c2ccc(C(F)(F)F)cc2)cc1)Nc1cccc([N+](=O)[O-])c1 [1-(3-nitrophenyl)-3-[4-[[4-(trifluoromethyl)phenyl]sulfonylamino]phenyl]urea]	143 µM
O=C(Nc1ccc(NS(=O)(=O)c2ccc(Cl)c(Cl)c2)cc1)Nc1ccc([N+](=O)[O-])cc1 [1-[4-[(3,4-dichlorophenyl)sulfonylamino]phenyl]-3-(4-nitrophenyl)urea]	32.7 µM

biological target: T2, Probable nicotinate-nucleotide adenylyltransferase (Bacillus anthracis (strain CDC 684 / NRRL 3495), UniProt C3L5T6); assay: NaMNAT HPLC Enzyme Assay; details: pH 7.5; 0 °C
T2 sequence (C3L5T6 whole entry): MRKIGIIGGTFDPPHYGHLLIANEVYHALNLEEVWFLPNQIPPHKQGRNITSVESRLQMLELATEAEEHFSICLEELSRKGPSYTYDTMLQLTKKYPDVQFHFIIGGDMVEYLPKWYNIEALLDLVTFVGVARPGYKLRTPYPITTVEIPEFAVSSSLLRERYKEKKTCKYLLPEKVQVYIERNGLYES
Description: Inhibitory concentration of the compound measured against B. anthracis Nicotinic acid mononucleotide adenylyltransferase (NaMNAT)using HPLC Enzyme Assay

Compound	IC50
O=C(Nc1ccc([N+](=O)[O-])cc1)Nc1ccc(S(=O)(=O)Nc2ccc(Cl)c(Cl)c2)cc1	2 µM
O=C(Nc1ccc(NS(=O)(=O)c2ccc(Cl)c(Cl)c2)cc1)Nc1ccccc1[N+](=O)[O-] [1-[4-[(3,4-dichlorophenyl)sulfonylamino]phenyl]-3-(2-nitrophenyl)urea]	> 600 µM
O=C(Nc1ccc(NS(=O)(=O)c2ccc(Cl)c(Cl)c2)cc1)Nc1cccc([N+](=O)[O-])c1 [1-[4-[(3,4-dichlorophenyl)sulfonylamino]phenyl]-3-(3-nitrophenyl)urea]	382 µM
Nc1ccc(S(=O)(=O)Nc2ccc(NC(=O)Nc3ccccc3[N+](=O)[O-])cc2)cc1 [1-[4-[(4-aminophenyl)sulfonylamino]phenyl]-3-(2-nitrophenyl)urea]	> 150 µM
O=C(Nc1ccc(NS(=O)(=O)c2ccc(Cl)c(Cl)c2)cc1)Nc1ccc([N+](=O)[O-])cc1 [1-[4-[(3,4-dichlorophenyl)sulfonylamino]phenyl]-3-(4-nitrophenyl)urea]	7.3 µM
O=C(Nc1ccc(NS(=O)(=O)c2ccc(F)cc2)cc1)Nc1ccc([N+](=O)[O-])cc1 [1-[4-[(4-fluorophenyl)sulfonylamino]phenyl]-3-(4-nitrophenyl)urea]	370 µM
